Test results from patent US7105502B2, “Nitric oxide-releasing imidate and thioimidate diazeniumdiolates” (The United States of America as represented by the …, priority 2001, dated 2006).

Columns and labels:
[1] = Detection of NO released in solution, headspace swept with argon into a chemiluminescence detector; assay type: physicochemical
Method: The nitrites and all solvents were purchased from Aldrich Chemical Company (Milwaukee, Wis.). Nitric oxide was obtained form Matheson Gas Products (Montgomeryville, Pa.). The ^1H NMR and ^13C NMR spectra were recorded in D2O (^1H at 300 MHz; ^13C at 75 MHz). Ultraviolet spectra (10 mM NaOH unless otherwise specified) and kinetic information were obtained on a Hewlett Packard 8452A UV-visible spectrophotometer with a thermostated cell holder. Infrared data was recorded on a Perkin-Elmer 1430 infrared spectrometer. Nitric oxide was measured with a Thermal Energy Analyzer model 502A (Thermedics, Inc., Woburn, Mass.). Melting points are uncorrected. Elemental analyses were performed by Atlantic Microlab, Inc. (Norcross, Ga.).
(§1) For the detection of NO, selected compounds from the examples were dissolved in either pH 7.4 buffer or 10% H2SO4, and the headspace was swept with argon into a chemiluminescence detector. The detection of nitrous oxide (N2O), formed from the dimerization and dehydration of HNO, was done by gas chromatography in both pH 7.4 buffer and 0.1 M HCl.

[2] = Detection of nitrous oxide (N2O) by gas chromatography; assay type: physicochemical; conditions: acid (0.1 M HCl)
Method: as §1

Row | Substance | NO (mole gas/mole cmpd) ([1]; acid (10% H2SO4)) | NO (mole gas/mole cmpd) ([1]; pH 7.4 buffer) | N2O (mole gas/mole cmpd) [2]
1 | 1-naphthyl diazeniumdiolate amide [Example 9] | 0.02 mole gas/mole cmpd | 0.16 mole gas/mole cmpd | 
2 | benzyl diazeniumdiolate methoxy imidate [Example 2] | 0.46 mole gas/mole cmpd | 0.36 mole gas/mole cmpd | 1.52 mole gas/mole cmpd
